This passage reports cytotoxicity results from ChEMBL document CHEMBL3507680, “University of Dundee, Gates Library screen for HepG2 cell viability”.

Each structure is given as a SMILES string.

The nature of the series: Human HepG2 cell viability assay in 384 well format. Type of series: toxicity, cell-based. On the set-up: dose 125 nL, time 70.5 hour; concentration not given beside the values. Conditions: HepG2 cells, read-out: Inhibition.
`Cc1cc(NC(=O)NCC(CC(C)C)N2CCOCC2)n(C)n1` (configuration not stated): the cytotoxicity at 70.5 h stood at 2.74%.
As for `CCOc1ccc(C#N)cc1NCC(=O)NC1(C#N)CCCC1`, the figure is -6.01%; as for `CCNC(=O)NC(=O)CNc1cc(C#N)ccc1OCC`, -3.61%; as for `CN1CCOC(CNC(=O)Cc2coc(-c3ccccc3)n2)C1` (configuration not stated), -13.1%.
Consider `OC(CN1CCC(c2ccn[nH]2)CC1)c1ccc(F)cc1F` (configuration not stated), for which the cytotoxicity at 70.5 h is -5.74%.
Consider `CN(Cc1ccncc1)C(=O)NCc1nnc2n1CCCCC2`, for which the cytotoxicity at 70.5 h was found to be 22.9%.
With `CN(Cc1ccc(O)cc1)C(=O)NCc1nnc2n1CCCCC2`, the cytotoxicity at 70.5 h was -2.24%.
For the molecule `CCN(CC1CCCO1)C(=O)Nc1ccc(OC)c(C)c1` (configuration not stated), the cytotoxicity at 70.5 h is -8.02%.
In the case of `O=C(c1ccc(-n2cnnn2)cc1)N1CCCC(n2ccnc2)C1` (configuration not stated), the cytotoxicity at 70.5 h is -6.98%.
Then `CC(C)c1n[nH]c(C(=O)Nc2ccccn2)c1Br`, with 12.4%.
Consider `CN(Cc1ccc(N(C)C)cc1)C(=O)NCc1nnc2n1CCC2`, for which the cytotoxicity at 70.5 h is -5.5%.
On to `Cc1cccc(NC2CCN(C(=O)Nc3ccc(F)c(F)c3)CC2)n1`, for which the cytotoxicity at 70.5 h is -4.64%.
As for `Cc1cnn(CC2CCCN2C(=O)c2cccc(S(C)(=O)=O)c2)c1` (configuration not stated), the figure is -2.98%.
Then `Cc1cnn(CC2CCCN2C(=O)c2cccc(-n3ccc(C)n3)c2)c1` (configuration not stated), with -7.87%; and `Cc1cccc(NC2CCN(C(=O)Nc3ccccn3)CC2)n1`, with 2.1%.
Then `CCN1CCOC(CNCc2cccc(OCc3ccccn3)c2)C1` (configuration not stated), with -6.84%.
Take `O=C(CCc1cccc(F)c1F)N1CCCC(n2cncn2)C1` (configuration not stated): the cytotoxicity at 70.5 h was -6.22%.
Then `CN(Cc1ccc(F)cc1)C(=O)NCc1nnc2n1CCC2`, with -10.4%; and `Cc1nccn1CC1CCCN1S(=O)(=O)Cc1cccc(F)c1` (configuration not stated), with 18.7%.
Then `Fc1cccc(-c2nc(CN3CCCC3Cn3cncn3)co2)c1` (configuration not stated), with 8.65%; and `Cc1nccn1CC1CCCN1S(=O)(=O)Cc1cccc(C#N)c1` (configuration not stated), with 29.1%.
Then `Fc1ccc(-c2nc(CN3CCCC3Cn3cncn3)co2)cc1` (configuration not stated), with 17.6%; and `CC(C)(C)c1nc(CN2CCC(c3ccnn3CCO)CC2)no1`, with -0.084%.
For `c1ccc(-c2cnc(CN3CCCC3Cn3cccn3)o2)cc1` (configuration not stated), the cytotoxicity at 70.5 h was determined as 1.69%.
For `COc1ccc(-c2cnc(CN3CCCC3Cn3cccn3)o2)cc1` (configuration not stated), the cytotoxicity at 70.5 h is -7.48%.
On to `Cc1nc(C2CCCN(C(=O)c3c[nH]c(C(C)C)n3)C2)no1` (configuration not stated), for which the cytotoxicity at 70.5 h is -2.72%.
Then `c1ccc(-c2nc(CN3CCCCC3Cn3cncn3)co2)cc1` (configuration not stated), with -0.916%; and `NC(=O)C1CCN(C(=O)CCCc2nnc(-c3ccccc3)o2)CC1`, with -10.4%; and `Cc1cc(CN2CCN(C(=O)NCc3ccc(C)s3)CC2)on1`, with -2.93%.
As for `CCc1noc(CN2CCC(c3ccnn3CCO)CC2)n1`, the figure is -5.37%.
`CC(C)c1noc(CN2CCC(c3ccnn3CCO)CC2)n1`: the cytotoxicity at 70.5 h is -3.73%.
Then `O=C(CCCc1nnc(-c2ccccc2)o1)N1CCN(C2CC2)CC1`, with 0.0439%; and `COc1ccccc1CNC(=O)N1CCN(Cc2cc(C)on2)CC1`, with -2.55%.
For `NC(=O)C1CCN(C(=O)CCCc2nnc(-c3ccccc3)o2)C1` (configuration not stated), the cytotoxicity at 70.5 h is -0.453%.
As for `c1ccc(-c2nc(CN3CCCC3Cn3cncn3)co2)cc1` (configuration not stated), the figure is -7.46%; as for `Clc1ccc(-c2nc(CN3CCCC3Cn3cncn3)co2)cc1` (configuration not stated), -1.1%; as for `Cc1ccc(-c2nc(CN3CCCC3Cn3cncn3)co2)cc1` (configuration not stated), 1.81%.
As for `Cc1nccn1C1CCCN(C(=O)c2ccc3c(c2)COC3)C1` (configuration not stated), the figure is -3.92%; as for `O=C(Nc1ccc(CCN2CCC(O)CC2)cc1)C1CCOCC1`, 9.76%; as for `Cc1noc(C)c1C(=O)NCC(O)c1ccc(F)cc1F` (configuration not stated), 27.1%.
As to `Cc1cc(CN2CCCC2c2noc(C3CC3)n2)c2ccccc2n1` (configuration not stated), the cytotoxicity at 70.5 h was 51.7%.
`Cc1nnc(NCc2ccccc2Cl)c(C#N)c1C`: the cytotoxicity at 70.5 h is -9.79%.
As to `Cc1cc(C)n(CC2CCCN2C(=O)c2cnn(C)c2C2CC2)n1` (configuration not stated), the cytotoxicity at 70.5 h was -11.8%.
Then `CC(C)C(C(=O)N1CCCN(Cc2nccn2C)CC1)N1CCCC1` (configuration not stated), with 30.4%; and `CN(Cc1cccc(F)c1)C1CCN(CCc2ccccn2)CC1`, with 15.1%.
For `Cc1ccc(-c2cc(CNC(=O)N3CCC(CO)CC3)on2)cc1`, the cytotoxicity at 70.5 h was 5.23%.
As for `Cc1nc(CNC(=O)NCC(O)c2ccc(F)c(F)c2)cs1` (configuration not stated), the figure is 1.43%.
As for `CCN1CCC(CNC(=O)NCc2cc(-c3ccc(C)cc3)no2)C1` (configuration not stated), the figure is -1.11%; as for `COc1ccc(C(O)CNC(=O)NCc2csc(C)n2)cc1` (configuration not stated), 27.2%.
As for `CCC1CN(C(=O)Nc2cnc3c(cnn3C(C)C)c2)CCO1` (configuration not stated), the figure is 1.85%.
With `COc1ccc(OCCCNC(=O)NCc2csc(C)n2)cc1`, the cytotoxicity at 70.5 h was -7.03%.
As for `Cc1ccc(N2CCCN(C(=O)C(C(C)C)n3cncn3)CC2)nn1` (configuration not stated), the cytotoxicity at 70.5 h was 1.73%.
Then `CS(=O)(=O)CCC(=O)Nc1cnn(-c2ccccc2Cl)c1`, with 2.48%; and `Cc1[nH]ncc1C(=O)N1CCCC(c2cc(C(F)(F)F)[nH]n2)C1` (configuration not stated), with 5.58%; and `CCS(=O)(=O)c1ccccc1N1CCC(NC(=O)NC2CCCC2)CC1`, with -14.2%.
As for `CN1CCN(C(=O)c2ccc(=O)n(C)c2)c2ccccc21`, the figure is -1.74%; as for `O=C(NCCC(=O)N1CCCC1)c1nn(-c2ccccc2F)cc1O`, 35.9%.
Turning to `CC(NC(=O)NCCCN1CCCCCC1)c1nncn1C` (configuration not stated), the cytotoxicity at 70.5 h worked out at 0.545%.
In the case of `CC(NC(=O)NCCN1CCCCCC1=O)c1nncn1C` (configuration not stated), the cytotoxicity at 70.5 h is 7.16%.
In the case of `COCCCN(C)C1CCCN(Cc2noc(C)n2)C1` (configuration not stated), the cytotoxicity at 70.5 h amounted to 6.68%.
As to `N#Cc1ccc(F)c(CN2CCCC2Cn2cnc3ccccc32)c1` (configuration not stated), the cytotoxicity at 70.5 h was determined as 7.39%.
Turning to `N#Cc1ccc(F)c(CN2CCCC2Cn2cccn2)c1` (configuration not stated), the cytotoxicity at 70.5 h is -5.17%.
`COCCN1CCC(N(Cc2noc(C3CC3)n2)C(C)=O)C1` (configuration not stated): the cytotoxicity at 70.5 h came out at 10.7%.
In the case of `CCc1nc(C2CCCN2C(=O)CCNS(C)(=O)=O)no1` (configuration not stated), the cytotoxicity at 70.5 h was 0.333%.
Then `Cc1nn(C)c(C)c1C1CCCN1Cc1nc(C2CC2)no1` (configuration not stated), with 36.6%; and `O=C(c1cccc(Cn2ccnc2)c1)N1CCCC(n2ccnc2)C1` (configuration not stated), with -16.1%; and `NC(=O)COc1cccc(C(=O)N2CCCC(n3cccn3)C2)c1` (configuration not stated), with 28.9%.
As for `CC(C)c1ncc2c(n1)CN(Cc1nc(-c3cccs3)no1)CC2`, the figure is -11.9%.
Then `CC(NC(=O)CCc1cccs1)c1nnc2n1CCC2` (configuration not stated), with -36.3%; and `CS(=O)(=O)N1CCC(C(=O)NCCNc2ncccn2)CC1`, with -19.2%; and `COc1ncccc1NC(=O)NC1CCOc2ccccc21` (configuration not stated), with -14.2%.
On to `O=C(c1cc(C2CC2)[nH]n1)N1CCN(Cc2ccsc2)CC1`, for which the cytotoxicity at 70.5 h was 22%.
Turning to `COc1cccc(C(=O)NS(=O)(=O)c2cccc(C#N)c2)c1OC`, the cytotoxicity at 70.5 h was -13.8%.
For `Cc1ccc(C(=O)N2CCN(Cc3nc(C(C)C)no3)CC2)c(=O)[nH]1`, the cytotoxicity at 70.5 h is 1.28%.
Then `CC(NC(=O)Cc1cccs1)c1nnc2n1CCCCC2` (configuration not stated), with -23.9%.
As for `O=C1NCCN1C1CCCN(Cc2coc(-c3ccc(F)cc3)n2)C1` (configuration not stated), the figure is 31%; as for `Cc1cnn(CC2CN(Cc3nccn3C)CCO2)c1` (configuration not stated), -10.6%.
In the case of `Cc1nnc2n1CCN(Cc1csc(-c3ccc(F)cc3)n1)C2`, the cytotoxicity at 70.5 h is -12.1%.
Consider `c1ccc2oc(N3CCCCC3Cn3cncn3)nc2c1` (configuration not stated), for which the cytotoxicity at 70.5 h is 25.6%.
In the case of `Cc1ccc(NC2CCN(C(=O)CCc3ccco3)CC2)nn1`, the cytotoxicity at 70.5 h is -9.84%.
Then `CC(C)c1ncc2c(n1)CN(Cc1nc(-c3ccoc3)no1)CC2`, with -16.7%; and `O=C(CN1CC(n2cccn2)C1)NCCCc1ccccc1`, with -8.01%.
Then `CC(=O)Nc1nc(CN2CCn3c(nnc3C3CC3)C2)cs1`, with -7.7%.
In the case of `CC1CN(CC(=O)Nc2cccnc2)CCN1c1nccs1` (configuration not stated), the cytotoxicity at 70.5 h is -12.4%.
On to `Cc1cc(NC(=O)CN2CCN(c3nccs3)C(C)C2)n(C)n1` (configuration not stated), for which the cytotoxicity at 70.5 h was -7.64%.
As for `Cc1nc(C)n(CC2CCCN(CCOc3cccc(C#N)c3)C2)n1` (configuration not stated), the figure is 40.4%.
As for `COc1ccccc1N1CCC(CNCc2cccc(C#N)c2)C1` (configuration not stated), the figure is 35.6%; as for `CC(C)c1nc(C2CCCN(C(=O)CCn3ccnc3)C2)no1` (configuration not stated), 13.6%.
As for `Cc1noc(CN(Cc2ccc3c(c2)OCO3)Cc2ccc(C)o2)n1`, the figure is -15.7%; as for `COc1ccccc1C1(C(=O)NCCN2CCOCC2)CCOCC1`, -17.1%.
Take `Cc1cnn(C2CCCN(C(=O)CCc3nccs3)C2)c1` (configuration not stated): the cytotoxicity at 70.5 h amounted to 17.1%.
In the case of `CSC(C)C(=O)N1CCCN(Cc2cnn(C(C)C)c2)CC1` (configuration not stated), the cytotoxicity at 70.5 h is -12%.
In the case of `Cc1cnn(C2CCCN(C(=O)CCCNc3ncccn3)C2)c1` (configuration not stated), the cytotoxicity at 70.5 h is -14.5%.
Regarding `Cc1ccc(N2CCCN(C(=O)CC3CCCO3)CC2)nn1` (configuration not stated), the cytotoxicity at 70.5 h is -18.7%.
As for `COc1ccccc1N1CCC(CNCc2cccc(OC)c2OC)C1` (configuration not stated), the figure is 13.4%; as for `CC(C)c1nc(C2CCCN(C(=O)CCCn3cncn3)C2)no1` (configuration not stated), -16%.
As for `Cc1nnc(CN2CCC(N(C)Cc3nnc(C4CC4)n3C)C2)o1` (configuration not stated), the cytotoxicity at 70.5 h was -21.8%.
As for `Cc1cnn(CC2CCCCN2Cc2nnc(-c3ccco3)o2)c1` (configuration not stated), the cytotoxicity at 70.5 h is -4.33%.
As for `Cc1nn(CC(C)C)c(N(C)C)c1CNCc1cccnc1N(C)C`, the cytotoxicity at 70.5 h was -13.5%.
Regarding `CC(C(=O)Nc1ccc(N2CCCC2)nc1)n1cncn1` (configuration not stated), the cytotoxicity at 70.5 h is -12.1%.
Then `Cn1cnc(S(=O)(=O)NCCCN2CCOCC2)c1Cl`, with -14.4%.
As for `Cn1cnc(S(=O)(=O)NCCCN2CCCCCC2)c1Cl`, the figure is -6.45%.
